*1 amine or outer side, *2 acyl side, *3 side chain or, on linkers, in order; H or OH if unused. Where a SMILES comes first, the peptide text is derived from it. Bridges are numbered along the chain shown (N, C = ends). [ ]: non-standard residue; d: D form. Tyr(3-I) = N[C@@H](Cc1ccc(O)c(I)c1)C(=O)O; β3hY = N[C@H](CC(=O)O)Cc1ccc(O)cc1; CH2 = C([*:1])[*:2]
Conditions: pH 7.4

SMILES: C[C@@H](O)[C@@H]1NC(=O)[C@@H]2CSCSC[C@@H](C(=O)N[C@H](CC(=O)N[C@@H](CCCNC(=N)N)C(=O)O)Cc3ccc(O)cc3)NC(=O)[C@H](CCC(N)=O)NC(=O)[C@H](Cc3ccc(O)c(I)c3)NC(=O)[C@H](CCCNC(=N)N)NC(=O)[C@H](CSSC[C@H](NC(=O)CN)C(=O)N2)NC(=O)[C@H](CCCNC(=N)N)NC(=O)[C@@H]2CCCN2C(=O)[C@H](CC(=O)O)NC1=O [RgIA-5524, G C^I C^II T D P R C^III R (iY) Q C^IV (bhY) R] (H-GCCTDPRCR[Tyr(3-I)]QC[β3hY]R-OH; disulfide 2-8; linker 3-12 via CH2)
- disulfide scrambling in presence of reduced glutathione (in words): largely suppress disulfide scrambling

— patent US20230391838A1 (priority 2020, published 2023)
